Data reported in publication PMC10256776, “Cryo-EM structures of ClC-2 chloride channel reveal the blocking mechanism of its specific inhibitor AK-42” (Nature Communications, 2023).
Residue numbers refer to the chain shown, from its start.

Experiments:
Assay in all cases: whole-cell patch clamp, […] AK-42
Type in all cases: cell-based
ClC-2 [1] = biological target: T1, ClC-2 (Homo sapiens, UniProt P51788, K394R)
T1 construct: gene CLCN2; human ClC-2 mutant expressed in CHO-K1 cells
T1 sequence (P51788 2-898 K394R): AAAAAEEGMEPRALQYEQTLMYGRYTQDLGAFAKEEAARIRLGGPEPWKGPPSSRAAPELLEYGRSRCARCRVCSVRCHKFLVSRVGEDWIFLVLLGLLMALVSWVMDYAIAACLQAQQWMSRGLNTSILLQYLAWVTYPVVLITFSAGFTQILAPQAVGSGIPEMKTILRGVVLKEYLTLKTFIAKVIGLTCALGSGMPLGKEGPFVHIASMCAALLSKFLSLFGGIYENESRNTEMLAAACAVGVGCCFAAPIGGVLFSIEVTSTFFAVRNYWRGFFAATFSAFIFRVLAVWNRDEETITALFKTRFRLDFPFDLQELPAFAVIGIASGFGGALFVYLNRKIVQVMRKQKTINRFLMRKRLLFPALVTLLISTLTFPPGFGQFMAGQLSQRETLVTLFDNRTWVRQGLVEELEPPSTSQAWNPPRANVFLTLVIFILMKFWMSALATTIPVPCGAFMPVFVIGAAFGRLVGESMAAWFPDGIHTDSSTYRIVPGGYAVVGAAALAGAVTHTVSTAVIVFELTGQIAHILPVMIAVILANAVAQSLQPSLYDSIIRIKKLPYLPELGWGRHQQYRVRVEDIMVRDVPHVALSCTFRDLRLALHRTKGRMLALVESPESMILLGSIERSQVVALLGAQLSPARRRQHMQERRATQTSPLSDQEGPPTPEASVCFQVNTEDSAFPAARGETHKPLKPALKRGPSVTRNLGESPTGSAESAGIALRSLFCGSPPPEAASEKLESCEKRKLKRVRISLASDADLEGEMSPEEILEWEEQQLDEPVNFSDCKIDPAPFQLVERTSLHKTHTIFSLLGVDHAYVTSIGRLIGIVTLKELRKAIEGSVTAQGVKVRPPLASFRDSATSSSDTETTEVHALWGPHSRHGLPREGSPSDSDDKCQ

ClC-2 [2] = biological target: T2, ClC-2 (Homo sapiens, UniProt P51788, F459A)
T2 construct: gene CLCN2; human ClC-2 mutant expressed in CHO-K1 cells
T2 sequence (P51788 2-898 F459A): T1 sequence (P51788 2-898 K394R) with R393K, F458A

ClC-2 [3] = biological target: T3, ClC-2 (Homo sapiens, UniProt P51788, K394A)
T3 construct: gene CLCN2; human ClC-2 mutant expressed in CHO-K1 cells
T3 sequence (P51788 2-898 K394A): T1 sequence (P51788 2-898 K394R) with R393A

O=C(O)c1cccnc1Nc1c(Cl)ccc(OCc2ccccc2)c1Cl [AK-42, 2-((3-(benzyloxy)−2,6-dichlorophenyl)amino)nicotinic acid]
whole-cell patch clamp, 30 nM AK-42 (ClC-2 [1]): K394R and K394A showed a slightly lower but not significant percent inhibition of AK-42 than wild-type ClC-2
whole-cell patch clamp, 30 nM AK-42 (ClC-2 [2]): the mutation F459A in the hydrophobic pocket shows a higher percent inhibition value than wild-type ClC-2
whole-cell patch clamp, 30 nM AK-42 (ClC-2 [3]): K394R and K394A showed a slightly lower but not significant percent inhibition of AK-42 than wild-type ClC-2
